Source: the supplement of paper PMC4862054

Columns and labels:
Conditions in all cases: incubation time: 72 h
MCF-10A [1] = assay: drug sensitivity score (DSS), CellTiter-Glo (DSS (AUC-based score)); higher = stronger drug effect (viability inhibition or cytotoxicity); extreme values may be limits of the assay
Method in brief: (§1)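 Plates with 384 wells held compound at 5 concentrations in 10-fold steps over a 10,000-fold range specific to each compound. Breast cancer cell lines were added in 20 µl suspension and incubated 72 h, then read for CellTox Green and CellTiter-Glo signals, with each plate normalised to 0.1 % DMSO and a positive kill control. The drug sensitivity score is based on the area under the fitted dose-response curve.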

MDA-MB-231 [2] = assay: as above
Method in brief: as §1

MFM-223 [3] = assay: as above
Method in brief: as §1

CAL-51 [4] = assay: as above
Method in brief: as §1

CAL-120 [5] = assay: as above
Method in brief: as §1

MDA-MB-436 = assay: as above
Method in brief: as §1

MDA-MB-453 [6] = assay: as above
Method in brief: as §1

BT-549 [7] = assay: as above
Method in brief: as §1

BT-474 [8] = assay: as above
Method in brief: as §1

HCC1143 [9] = assay: as above
Method in brief: as §1

SK-BR-3 = assay: as above
Method in brief: as §1

CAL-85-1 [10] = assay: as above
Method in brief: as §1

HDQ-P1 [11] = assay: as above
Method in brief: as §1

HCC1599 [12] = assay: as above
Method in brief: as §1

Hs578T = assay: as above
Method in brief: as §1

HCC1937 [13] = assay: as above
Method in brief: as §1

CAL-148 [14] = assay: as above
Method in brief: as §1

DU-4475 [15] = assay: as above
Method in brief: as §1

MDA-MB-468 [16] = assay: as above
Method in brief: as §1

MCF-10A [17] = assay: drug sensitivity score (DSS), CellTox Green (DSS (AUC-based score)); higher = stronger drug effect (viability inhibition or cytotoxicity); extreme values may be limits of the assay
Method in brief: as §1

MDA-MB-231 [18] = assay: as above
Method in brief: as §1

MFM-223 [19] = assay: as above
Method in brief: as §1

CAL-51 [20] = assay: as above
Method in brief: as §1

CAL-120 [21] = assay: as above
Method in brief: as §1

MDA-MB-453 [22] = assay: as above
Method in brief: as §1

BT-549 [23] = assay: as above
Method in brief: as §1

BT-474 [24] = assay: as above
Method in brief: as §1

HCC1143 [25] = assay: as above
Method in brief: as §1

CAL-85-1 [26] = assay: as above
Method in brief: as §1

HDQ-P1 [27] = assay: as above
Method in brief: as §1

HCC1599 [28] = assay: as above
Method in brief: as §1

HCC1937 [29] = assay: as above
Method in brief: as §1

CAL-148 [30] = assay: as above
Method in brief: as §1

DU-4475 [31] = assay: as above
Method in brief: as §1

MDA-MB-468 [32] = assay: as above
Method in brief: as §1

Compound `c1ccc([C@H]2CN3CCSC3=N2)cc1` [Levamisole] has a drug sensitivity score (MCF-10A [1]) of 0, a drug sensitivity score (MDA-MB-231 [2]) of 0 and a drug sensitivity score (MFM-223 [3]) of 0. The drug sensitivity score (CAL-51 [4]) was 0, the drug sensitivity score (CAL-120 [5]) was 0 and the drug sensitivity score (MDA-MB-436) was 0. The drug sensitivity score (MDA-MB-453 [6]) was 0, the drug sensitivity score (BT-549 [7]) was 0 and the drug sensitivity score (BT-474 [8]) was 0. It also gave a drug sensitivity score (HCC1143 [9]) of 0, a drug sensitivity score (SK-BR-3) of 0 and a drug sensitivity score (CAL-85-1 [10]) of 0. It also gave a drug sensitivity score (HDQ-P1 [11]) of 0, a drug sensitivity score (HCC1599 [12]) of 0 and a drug sensitivity score (Hs578T) of 0. For the same compound, the drug sensitivity score (HCC1937 [13]) was 0, the drug sensitivity score (CAL-148 [14]) was 0 and the drug sensitivity score (DU-4475 [15]) was 0. For the same compound, the drug sensitivity score (MDA-MB-468 [16]) was 0, the drug sensitivity score (MCF-10A [17]) was 0 and the drug sensitivity score (MDA-MB-231 [18]) was 1.47. The drug sensitivity score (MFM-223 [19]) was 0, the drug sensitivity score (CAL-51 [20]) was 0 and the drug sensitivity score (CAL-120 [21]) was 0. For the same compound, the drug sensitivity score (MDA-MB-453 [22]) was 1.72, the drug sensitivity score (BT-549 [23]) was 0 and the drug sensitivity score (BT-474 [24]) was 0. For the same compound, the drug sensitivity score (HCC1143 [25]) was 0, the drug sensitivity score (CAL-85-1 [26]) was 0 and the drug sensitivity score (HDQ-P1 [27]) was 2.62. It also gave a drug sensitivity score (HCC1599 [28]) of 0, a drug sensitivity score (HCC1937 [29]) of 0 and a drug sensitivity score (CAL-148 [30]) of 0. It also gave a drug sensitivity score (DU-4475 [31]) of 0 and a drug sensitivity score (MDA-MB-468 [32]) of 0.
